Source: paper PMC5461367, “Neurologically Potent Molecules from Crataegus oxyacantha; Isolation, Anticholinesterase Inhibition, and Molecular Docking” (Frontiers in Pharmacology, 2017)
Values joined by “and” are separate entries in the source; they are usually repeats but may differ in a detail not shown here. Identical values can stand only once. Like-named read-outs stand apart in the source and are kept apart here.

Assays:
AChE = AChE (Homo sapiens, UniProt P22303); assay: biochemical; conditions: for inhibition at 62.5 µg/mL: 62.5 μg/ml; for inhibition at 250 µg/mL: 250 μg/ml; for IC50: read-out: AChE IC50 (μM ± SEM)
Sequence of AChE (P22303 32-614): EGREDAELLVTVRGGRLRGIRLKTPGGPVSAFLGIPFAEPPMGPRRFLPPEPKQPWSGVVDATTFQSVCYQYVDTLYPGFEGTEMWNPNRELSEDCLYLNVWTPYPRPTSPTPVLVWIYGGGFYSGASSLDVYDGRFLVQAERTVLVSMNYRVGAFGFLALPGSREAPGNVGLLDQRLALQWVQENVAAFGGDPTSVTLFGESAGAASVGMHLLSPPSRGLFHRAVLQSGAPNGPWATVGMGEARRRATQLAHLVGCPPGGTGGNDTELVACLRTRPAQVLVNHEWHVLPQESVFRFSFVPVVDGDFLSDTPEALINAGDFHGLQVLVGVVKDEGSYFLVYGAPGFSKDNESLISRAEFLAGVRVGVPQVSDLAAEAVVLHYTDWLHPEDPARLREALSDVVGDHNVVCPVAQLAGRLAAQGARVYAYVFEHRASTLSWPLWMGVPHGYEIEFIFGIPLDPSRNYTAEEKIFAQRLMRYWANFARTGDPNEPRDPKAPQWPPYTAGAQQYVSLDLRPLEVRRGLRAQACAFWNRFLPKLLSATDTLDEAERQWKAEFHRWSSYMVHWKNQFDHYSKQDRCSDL
Protocol: (§1) This yellow compound is UV detectable and is quantified with the passage of time with and without the impact of inhibitor agent. Briefly, from each enzyme solution, 5 μl were added to wells of micro plate and 5 μl DTNB was added to it. The resultant mixture was incubated for 15 min at 30°C in water bath followed by addition of 5 μl substrate solution. […] Control contains all solutions except inhibitor. Change in absorbance was recorded along with reaction time. At the end, Enzymes and enzymes inhibitory activities by control and our test samples were calculated from the rate of absorption with change in time as (V = Δ Abs /Δ t) and Enzyme inhibition as; Percent Enzyme activity = 100 × V/VMax.
(§2) Where, VMax is enzyme activity in the absence of inhibitor agent.

BChE = BChE (Homo sapiens, UniProt P06276); assay: biochemical; conditions: for inhibition at 62.5 µg/mL / inhibition at 250 µg/mL: read-out: % BChE inhibition; for IC50: read-out: BChE IC50 (μM ± SEM)
Sequence of BChE (P06276 29-602): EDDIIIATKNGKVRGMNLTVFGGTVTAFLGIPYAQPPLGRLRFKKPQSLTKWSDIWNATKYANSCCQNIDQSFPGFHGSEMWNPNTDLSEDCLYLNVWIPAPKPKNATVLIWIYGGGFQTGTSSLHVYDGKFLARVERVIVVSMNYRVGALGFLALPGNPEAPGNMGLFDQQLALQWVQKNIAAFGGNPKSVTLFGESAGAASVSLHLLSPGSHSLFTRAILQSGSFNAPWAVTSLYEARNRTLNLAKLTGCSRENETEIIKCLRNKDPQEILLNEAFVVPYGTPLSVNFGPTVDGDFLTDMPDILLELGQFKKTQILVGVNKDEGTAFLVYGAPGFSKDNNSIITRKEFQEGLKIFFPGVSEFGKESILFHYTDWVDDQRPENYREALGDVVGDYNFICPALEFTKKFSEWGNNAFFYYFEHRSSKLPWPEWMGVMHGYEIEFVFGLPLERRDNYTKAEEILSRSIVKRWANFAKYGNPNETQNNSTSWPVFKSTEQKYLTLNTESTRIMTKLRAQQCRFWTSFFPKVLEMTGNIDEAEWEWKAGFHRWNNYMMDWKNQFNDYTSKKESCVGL
Protocol: as §1, §2

human brain based AChE = conditions: ref Harvey, 1995; cited from earlier work
[1] = ratio of IC50 values, footnote a not given
[2] = ratio of IC50 values, footnote b not given

COc1cc(C(=O)CCO)ccc1O [Compound 2, 3-Hydroxy-1-(4-Hydroxy-3-Methoxyphenyl) Propan-1-One]
inhibition at 62.5 µg/mL (AChE): 83.74 ± 0.68% | inhibition at 250 µg/mL (AChE): 93.05 ± 0.75% | AChE selectivity (AChE; [1]): 0.59 | IC50 (AChE): 25.9 ± 1.35 µM | inhibition at 62.5 µg/mL (BChE; 62.5 μg/ml): 87.6 ± 1.06% | inhibition at 250 µg/mL (BChE; 250 μg/ml): 95.76 ± 0.71% | BChE selectivity (BChE; [2]): 1.69 | IC50 (BChE): 15.4 ± 1.01 µM

CCC(CCC(C)C1CCC2C3CC=C4CC(OC5OC(CO)C(O)C(O)C5O)CCC4(C)C3CCC12C)C(C)C [Compound 3, β-Sitosterol-3-O-β-D-Glucopyranoside]
inhibition at 62.5 µg/mL (AChE): 87.9 ± 0.52% | inhibition at 250 µg/mL (AChE): 95.7 ± 1.6% | AChE selectivity (AChE; [1]): 2.26 | IC50 (AChE): 5.22 ± 0.59 µM | inhibition at 62.5 µg/mL (BChE; 62.5 μg/ml): 83.03 ± 0.35% | inhibition at 250 µg/mL (BChE; 250 μg/ml): 94.84 ± 0.3% | BChE selectivity (BChE; [2]): 0.47 | IC50 (BChE): 11.8 ± 0.93 µM

C=C(C)[C@@H]1CC[C@]2(CO)CC[C@]3(C)[C@H](CC[C@@H]4[C@@]5(C)CC[C@H](O)C(C)(C)[C@@H]5CC[C@]43C)[C@@H]12 [Compound 6, 3β, 28-Dihydroxylup-20(29)-ene]
inhibition at 62.5 µg/mL (AChE): 84 ± 1.15% | inhibition at 250 µg/mL (AChE): 96.13 ± 0.2% | AChE selectivity (AChE; [1]): 1.06 | IC50 (AChE): 24 ± 1.1 µM | inhibition at 62.5 µg/mL (BChE; 62.5 μg/ml): 82.5 ± 0.9% | inhibition at 250 µg/mL (BChE; 250 μg/ml): 95.8 ± 2.25% | BChE selectivity (BChE; [2]): 0.93 | IC50 (BChE): 25.6 ± 1.25 µM

O=c1cc(-c2ccccc2)oc2cc(O)cc(O)c12 [Compound 9, 5,7-Dihydroxyflavone]
inhibition at 62.5 µg/mL (AChE): 81.2 ± 0.23% | inhibition at 250 µg/mL (AChE): 93.67 ± 0.88% | AChE selectivity (AChE; [1]): 0.02 | IC50 (AChE): 32.3 ± 1.8 µM | inhibition at 62.5 µg/mL (BChE; 62.5 μg/ml): 80.9 ± 1.9% | inhibition at 250 µg/mL (BChE; 250 μg/ml): 85% | BChE selectivity (BChE; [2]): 51.27 | IC50 (BChE): 0.63 ± 0.06 µM

C=C(C)[C@@H]1CC[C@]2(C(=O)O)CC[C@]3(C)[C@H](CC[C@@H]4[C@@]5(C)CC[C@H](O)C(C)(C)[C@@H]5CC[C@]43C)[C@@H]12 [Compound 7, 3β-Dihydroxylup-20(29)-ene-28-oic Acid]
inhibition at 62.5 µg/mL (AChE): 77.7 ± 1.25% | inhibition at 250 µg/mL (AChE): 95.7 ± 1.6% | AChE selectivity (AChE; [1]): 0.07 | IC50 (AChE): 44.5 ± 1.73 µM | inhibition at 62.5 µg/mL (BChE; 62.5 μg/ml): 87.2 ± 1.28% | inhibition at 250 µg/mL (BChE; 250 μg/ml): 94.1 ± 0.6% | BChE selectivity (BChE; [2]): 12.78 | IC50 (BChE): 3.48 ± 0.15 µM

CC[C@H](CC[C@@H](C)[C@H]1CC[C@H]2[C@@H]3CC=C4C[C@@H](O)CC[C@]4(C)[C@H]3CC[C@]12C)C(C)C [Compound 5, β-Sitosterol]
AChE selectivity (AChE): 0.04 | inhibition at 62.5 µg/mL (AChE): 80% | inhibition at 250 µg/mL (AChE): 91.33 ± 0.49% | IC50 (AChE): 14.6 ± 0.85 µM | BChE selectivity (BChE): 26.62 | inhibition at 62.5 µg/mL (BChE; 62.5 μg/ml): 87.08 ± 0.47% | inhibition at 250 µg/mL (BChE; 250 μg/ml): 92.6 ± 1.12% | IC50 (BChE): 0.55 µM and 0.56 µM

COc1ccc2c3c1O[C@H]1C[C@@H](O)C=C[C@@]31CCN(C)C2 [Galantamine, reference compound]
inhibition at 62.5 µg/mL (BChE): 87.8 ± 1.01% | inhibition at 250 µg/mL (BChE): 95.3 ± 1.09% | lower potency against human brain based AChE as compared to RBCs variant (human brain based AChE): 10 times

C=C(C)[C@@H]1CC[C@]2(C)CC[C@]3(C)[C@H](CC[C@@H]4[C@@]5(C)CC[C@H](O)C(C)(C)[C@@H]5CC[C@]43C)[C@@H]12 [Compound 4, Lupeol]
inhibition at 62.5 µg/mL (AChE): 77.87 ± 0.26% | inhibition at 250 µg/mL (AChE): 93.73 ± 0.78% | AChE selectivity (AChE; [1]): 0.04 | IC50 (AChE): 36.3 ± 1.89 µM | inhibition at 62.5 µg/mL (BChE; 62.5 μg/ml): 85.8 ± 1.5% | inhibition at 250 µg/mL (BChE; 250 μg/ml): 91.42 ± 0.43% | BChE selectivity (BChE; [2]): 27.71 | IC50 (BChE): 1.31 ± 0.12 µM

COc1ccc(C(CO)OC)cc1OC (stereo not shown) [Compound 1, 2-(3,4-Dimethoxyphenyl)-2-Methoxyethanol]
inhibition at 62.5 µg/mL (AChE): 89.7 ± 1.47% | inhibition at 250 µg/mL (AChE): 97.3 ± 1.06% | AChE selectivity (AChE; [1]): 0.10 | IC50 (AChE): 23.2 ± 1.02 µM | inhibition at 62.5 µg/mL (BChE; 62.5 μg/ml): 84.3 ± 2.19% | inhibition at 250 µg/mL (BChE; 250 μg/ml): 90.7 ± 1.34% | BChE selectivity (BChE; [2]): 9.62 | IC50 (BChE): 2.41 ± 0.09 µM
